26 molecules from patent publication US10544106B2, “Certain chemical entities, compositions, and methods” (NeuPharma, Inc., priority 2016, dated 2020) can be followed below.

The experiment deals with BTK (Homo sapiens (Human), UniProt Q06187). The experiment in a line: Z'-LYTE kinase inhibition assay against BTK. In kind it is biochemical. Conditions: for inhibition at 0.1 µM: compound at 100 nM, ATP concentration at Km; for pIC50: series of concentrations, GraphPad Prism 5. The procedure, abridged:
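Compounds were titrated over 10 points (3-fold steps, 1% DMSO) against BTK (1.04-10.4 ng) using Tyr 01 substrate at 2 μM and ATP at Km, pH 7.5 HEPES buffer with MgCl2 and EGTA. After one hour each of reaction and development at room temperature, fluorescence gave percent inhibition and IC50.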

Broadly, the inhibition is how much of the control response was suppressed. In general, pIC50 refers to the negative decadic logarithm of the IC50, by convention in mol/L. Read a high pIC50 as a small IC50.

Structures are written as SMILES. pIC50: −log10 of the molar value.

Chain of BTK (Q06187 whole entry): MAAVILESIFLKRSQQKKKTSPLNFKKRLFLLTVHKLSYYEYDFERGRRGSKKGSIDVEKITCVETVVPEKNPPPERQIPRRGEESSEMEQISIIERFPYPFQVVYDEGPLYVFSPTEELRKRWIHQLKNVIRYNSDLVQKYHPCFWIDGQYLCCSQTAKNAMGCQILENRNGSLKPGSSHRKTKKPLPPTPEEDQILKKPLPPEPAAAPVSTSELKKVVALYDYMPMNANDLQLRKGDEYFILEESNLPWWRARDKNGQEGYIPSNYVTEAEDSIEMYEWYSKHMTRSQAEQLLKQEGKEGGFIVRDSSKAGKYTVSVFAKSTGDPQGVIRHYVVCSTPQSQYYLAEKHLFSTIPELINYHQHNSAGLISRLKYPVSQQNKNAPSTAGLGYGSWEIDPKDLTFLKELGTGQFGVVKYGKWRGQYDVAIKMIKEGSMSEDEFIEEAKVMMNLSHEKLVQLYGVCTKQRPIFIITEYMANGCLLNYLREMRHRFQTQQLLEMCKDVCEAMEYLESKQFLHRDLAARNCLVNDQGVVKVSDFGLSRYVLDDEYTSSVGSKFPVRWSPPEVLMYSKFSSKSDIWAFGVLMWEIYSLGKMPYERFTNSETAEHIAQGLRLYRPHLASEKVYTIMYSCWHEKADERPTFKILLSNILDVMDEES

Molecule `C=CC(=O)Nc1cccc(-c2cc(-c3ccc(C(=O)Nc4cc(C#N)ccn4)cc3)c(N)c3cncnc23)c1` [C176, 4-(8-(3-acrylamidophenyl)-5-aminoquinazolin-6-yl)-N-(4-cyanopyridin-2-yl)benzamide] gave an inhibition at 0.1 µM of under 50%.

`C=CC(=O)Nc1cccc(-c2cc(-c3ccc(C(=O)Nc4ncccc4F)cc3Cl)c(N)c3cncnc23)c1` [C217, 4-(8-(3-acrylamidophenyl)-5-aminoquinazolin-6-yl)-3-chloro-N-(3-fluoropyridin-2-yl)benzamide] had an inhibition at 0.1 µM of over 50%.

`C=CC(=O)Nc1cccc(-c2cc(-c3ccc(Nc4ccccc4)cc3)cc3cncnc23)c1` [C025, N-(3-(6-(4-(phenylamino)phenyl)quinazolin-8-yl)phenyl)acrylamide] yielded an inhibition at 0.1 µM of under 50%.

Take `C=CC(=O)N1CCC(c2cc(-c3ccc(Oc4ccccn4)c(OC)c3)cc3cncnc23)C1` (stereo not shown) [C146, 1-(3-(6-(3-methoxy-4-(pyridin-2-yloxy)phenyl)quinazolin-8-yl)pyrrolidin-1-yl)prop-2-en-1-one]: the inhibition at 0.1 µM was under 50%.

For `C=CC(=O)Nc1cccc(-c2cc(-c3cccc(Nc4ccccc4)c3)cc3cncnc23)c1` [C017, N-(3-(6-(3-(phenylamino)phenyl)quinazolin-8-yl)phenyl)acrylamide], the inhibition at 0.1 µM was over 50%.

Consider `C=CC(=O)Nc1cccc(-c2cc(-c3ccc(C(=O)Nc4ccccn4)cc3)c(N)c3cncnc23)c1` [C170, 4-(8-(3-acrylamidophenyl)-5-aminoquinazolin-6-yl)-N-(pyridin-2-yl)benzamide], for which the inhibition at 0.1 µM was under 50%.

Turning to `C=CC(=O)Nc1cccc(-c2cc(-c3ccc(C(=O)Nc4cc(C5CC5)ccn4)cc3F)c(N)c3cncnc23)c1` [C202, 4-(8-(3-acrylamidophenyl)-5-aminoquinazolin-6-yl)-N-(4-cyclopropylpyridin-2-yl)-3-fluorobenzamide], the inhibition at 0.1 µM was over 50%.

On to `C=CC(=O)N1CCC(c2cc(-c3ccc(Oc4ccccc4)nc3)cc3cncnc23)C1` (stereo not shown) [C077, 1-(3-(6-(6-phenoxypyridin-3-yl)quinazolin-8-yl)pyrrolidin-1-yl)prop-2-en-1-one], for which the inhibition at 0.1 µM is under 50%.

With `C=CC(=O)Nc1cccc(-c2cc(-c3ccc(C(=O)Nc4cc(C#N)ccn4)c(OC)c3)cc3cncnc23)c1` [C156, 4-(8-(3-acrylamidophenyl)quinazolin-6-yl)-N-(4-cyanopyridin-2-yl)-2-methoxybenzamide], the inhibition at 0.1 µM was under 50%.

In turn, `CC#CC(=O)N1CCC(c2nc(-c3ccc(Oc4cc(C(F)(F)F)ccn4)c(OC)c3)n3c(N)nccc23)C1` (stereo not shown) [C222, 1-(3-(5-amino-3-(3-methoxy-4-((4-(trifluoro-methyl)pyridin-2-yl)oxy)phenyl)imidazo[1,5-c]pyrimidin-1-yl)pyrrolidin-1-yl)but-2-yn-1-one] had an inhibition at 0.1 µM of over 50%.

Molecule `C=CC(=O)N1CCC(c2cc(-c3ccc(C(=O)Nc4ccccn4)cc3)n3cnccc23)C1` (stereo not shown) [C046, 4-(5-(1-acryloylpyrrolidin-3-yl)pyrrolo[1,2-c]pyrimidin-7-yl)-N-(pyridin-2-yl)benzamide] showed an inhibition at 0.1 µM of under 50%.

For the molecule `C=CC(=O)N1CCC(c2cc(-c3ccc(Oc4ccccn4)cc3OC)cc3cncnc23)C1` (stereo not shown) [C133, 1-(3-(6-(2-methoxy-4-(pyridin-2-yloxy)phenyl)quinazolin-8-yl)pyrrolidin-1-yl)prop-2-en-1-one], the inhibition at 0.1 µM is under 50%.

Molecule `C=CC(=O)Nc1cccc(-c2cc(-c3ccc(C(=O)Nc4ccccn4)cc3F)cc3cncnc23)c1` [C087, 4-(8-(3-Acrylamidophenyl)quinazolin-6-yl)-3-fluoro-N-(pyridin-2-yl)benzamide] came in with an inhibition at 0.1 µM of under 50%.

On to `C=CC(=O)Nc1cccc(-c2cc(-c3ccc(C(=O)Nc4ccccc4)cc3)cc3cncnc23)c1` [C053, 4-(8-(3-acrylamidophenyl)quinazolin-6-yl)-N-phenylbenzamide], for which the inhibition at 0.1 µM was over 50% and the pIC50 is over 7.00.

`C=CC(=O)N1CCC(c2cc(-c3ccc(Oc4ccccn4)cc3)cc3cncnc23)C1` (stereo not shown) [C107, 1-(3-(6-(4-(pyridin-2-yloxy)phenyl)quinazolin-8-yl)pyrrolidin-1-yl)prop-2-en-1-one] had an inhibition at 0.1 µM of over 50%.

`C=CC(=O)N1CCC(c2cc(-c3ccc(C(=O)Nc4cc(C5CC5)ccn4)cc3)n3cnccc23)C1` (stereo not shown) [C164, 4-(5-(1-acryloylpyrrolidin-3-yl)pyrrolo[1,2-c]pyrimidin-7-yl)-N-(4-cyclopropylpyridin-2-yl)benzamide]: the inhibition at 0.1 µM is over 50%.

In the case of `C=CC(=O)N1CCC(c2cc(-c3ccc(Oc4ccccc4)cc3)n3cnccc23)C1` (stereo not shown) [C063, 1-(3-(7-(4-phenoxyphenyl)pyrrolo[1,2-c]pyrimidin-5-yl)pyrrolidin-1-yl)prop-2-en-1-one], the inhibition at 0.1 µM is over 50%.

`C=CC(=O)Nc1cccc(-c2ccc(-c3ccc(C(=O)Nc4ccccn4)cc3)c3cncnc23)c1` [C039, 4-(8-(3-acrylamidophenyl)quinazolin-5-yl)-N-(pyridin-2-yl)benzamide] came in with an inhibition at 0.1 µM of under 50%.

The molecule `C=CC(=O)Nc1cccc(-c2cc(-c3ccc(C(=O)Nc4ccccc4)nc3)cc3cncnc23)c1` [C050, 5-(8-(3-acrylamidophenyl)quinazolin-6-yl)-N-phenylpicolinamide] gave an inhibition at 0.1 µM of over 50%.

`C=CC(=O)Nc1cccc(-c2cc(-c3ccc(Oc4cccc(C(F)(F)F)c4)nc3)cc3cncnc23)c1` [C081, N-(3-(6-(6-(3-(trifluoromethyl)phenoxy)pyridin-3-yl)quinazolin-8-yl)phenyl)acrylamide] gave an inhibition at 0.1 µM of over 50%.

Regarding `C=CC(=O)N1CCC(c2cc(-c3ccccc3)cc3cnc(N)nc23)C1` (stereo not shown) [C083, 1-(3-(2-amino-6-phenylquinazolin-8-yl)pyrrolidin-1-yl)prop-2-en-1-one], the inhibition at 0.1 µM is under 50%.

Regarding `C=CC(=O)N1CCC(c2nc(-c3ccc(Oc4cc(OC)ccn4)c(F)c3)n3c(N)nccc23)C1` (stereo not shown) [C216, 1-(3-(5-amino-3-(3-fluoro-4-((4-methoxy-pyridin-2-yl)oxy)phenyl)imidazo[1,5-c]pyrimidin-1-yl)pyrrolidin-1-yl)prop-2-en-1-one], the inhibition at 0.1 µM is over 50% and the pIC50 was over 7.00.

`C=CC(=O)Nc1cccc(-c2cc(-c3ccc(C(=O)Nc4cc(C)ccn4)cc3)cc3cncnc23)c1` [C041, 4-(8-(3-acrylamidophenyl)quinazolin-6-yl)-N-(4-methylpyridin-2-yl)benzamide]: the inhibition at 0.1 µM is over 50%.

As for `C=CC(=O)N1CCC(n2c(-c3ccccc3Cl)nc3cnc(N)nc32)C1` (stereo not shown) [C026, 1-(3-(2-amino-8-(2-chlorophenyl)-9H-purin-9-yl)pyrrolidin-1-yl)prop-2-en-1-one], the inhibition at 0.1 µM was under 50%.

Turning to `C=CC(=O)N1CCC(c2cc(-c3ccc(Oc4ccccn4)cc3F)cc3cnc(N)nc23)C1` (stereo not shown) [C144, 1-(3-(2-amino-6-(2-fluoro-4-(pyridin-2-yloxy)phenyl)quinazolin-8-yl)pyrrolidin-1-yl)prop-2-en-1-one], the inhibition at 0.1 µM was under 50%.

Molecule `C=CC(=O)Nc1cccc(-c2cc(-c3ccc(C(=O)Nc4cc(C)ccn4)cc3)cc3cnc(N)nc23)c1` [C036, 4-(8-(3-acrylamidophenyl)-2-aminoquinazolin-6-yl)-N-(4-methylpyridin-2-yl)benzamide] gave an inhibition at 0.1 µM of under 50%.
